Data set [1] is described as follows: Solubility in a mixture of water-ethanol (1:1) at 25° C. (Table 1). In kind it is physicochemical.
Data set [2] can be described thus: Solubility for injectable solvents / the solvent for the administration (stated in words). In kind it is physicochemical. The following applies: for solubility for the solvent for the administration: compared with the mixture of salts of the formula (B) and calcium salt.
Data set [3] can be described thus: Pharmacological activity (lipid A-like activity; stated in words, no test described). The following applies: sufficiency for use as a pharmaceutical agent.

In brackets after ≈: the same amount, converted by molar mass. Where a name gives a salt, the structure may show the parent alone. Where only a bound is given, the exact number is not on record here.

Broadly, the Solubility is the dissolved amount per volume that the medium holds. For the compound `CCCCCCCCCCC[C@@H](CC(=O)N[C@H]1C(O)O[C@H](CO)[C@@H](OS(=O)(=O)O)[C@@H]1OC(=O)CCCCCCCCc1ccccc1)OC(=O)CCCCCCCCc1ccccc1` (mixture of isomers) [Reference example 5, mixture salt of calcium, sodium and magnesium of 2-deoxy-2-[(3S)-(9-phenylnonanoyloxy)tetradecanoyl]amino-3-O-(9-phenylnonanoyl)-4-O-sulfo-D-glucopyranose, reference compound], in data set [1], the Solubility was 1.5 mg/mL. Consider `CCCCCCCCCCC[C@@H](CC(=O)N[C@H]1C(O)O[C@H](CO)[C@@H](OS(=O)(=O)O)[C@@H]1OC(=O)CCCCCCCCc1ccccc1)OC(=O)CCCCCCCCc1ccccc1` (single isomer, unassigned) [Example 3], for which, in data set [1], the Solubility is 212 mg/mL (≈ 231 mM). Moreover, the “solubility for the solvent for the administration” value in data set [2] is reported as “very good solubility”. The like results for `CCCCCCCCCCC[C@@H](CC(=O)N[C@H]1C(O)O[C@H](CO)[C@@H](OS(=O)(=O)O)[C@@H]1OC(=O)CCCCCCCCc1ccccc1)OC(=O)CCCCCCCCc1ccccc1` (single isomer, unassigned) [Example 4] were, in that order, greater than 270 mg/mL and “very good solubility”. As to `CCCCCCCCCCC[C@@H](CC(=O)N[C@H]1C(O)O[C@H](CO)[C@@H](OS(=O)(=O)O)[C@@H]1OC(=O)CCCCCCCCc1ccccc1)OC(=O)CCCCCCCCc1ccccc1` (stereo partly drawn) [formula (Aa), 2-Deoxy-2-[(3S)-(9-phenylnonanoyloxy)tetradecanoyl]amino-3-O-(9-phenylnonanoyl)-4-O-sulfo-D-glucopyranose, reference compound], the pharmacological activity result in data set [3] was “sufficient pharmacological activity”. Further, the “solubility for injectable solvents” value in data set [2] (injectable solvents) is “very poor”.

Values taken from patent US5733927A, “Salts of glucopyranose derivative and solutions of the same” (Ono Pharmaceutical Co., Ltd., priority 1992, dated 1998).
